Experimental data from patent US20250057910A1, “Application of Polypeptide in Preparation of Product for Preventing or Treating Skin Injury Diseases” (Sichuan Gooddoctor Panxi Pharmaceutical Co., Ltd., priority 2021, published 2025).
Ends that are not written are not given here.

Test system: SD rats
Experiment: Healing of full-layer skin defect wound in SD rats
Type: in vivo, rat
Settings: SD rats, topical once a day, polypeptide 50 μg/cm^2, comparative polypeptide 1 41.90 μg/cm^2, comparative polypeptide 2 52.66 μg/cm^2, Mean ± SD, n = 8
Protocol: Experimental animals: SD male rats, SPF grade, 6 weeks old, weighing 180-220 g, from Beijing Vital River Laboratory Animal Technology Co., Ltd., with the experimental animal quality certification number of NO.110011220109610345, and the experimental animal use license number of SCXK (Beijing) 2021-0011.
Experimental method: SD rats were randomly divided into […] based on the body weight with 8 animals in each group, namely, vehicle group, the polypeptide group (50 μg/cm^2), comparative polypeptide 1 group (41.90 μg/cm^2) and comparative polypeptide 2 group (52.66 μg/cm^2). The amino acid sequence of comparative polypeptide 1 is Glu-Pro-Val-Pro-Leu; and the amino acid sequence of comparative polypeptide 2 is Pro-Ala-Ala-Glu-Pro-Val-Pro-Leu-Val-Lys-Gln-Glu.
After each experimental rat was anesthetized by intraperitoneal injection of 2% pentobarbital sodium (0.2 mL/100 g), a 2 cm^2 full-layer skin defect wound was prepared at each of both sides of the back spine. After hemostasis of the wound, the corresponding drug was administered at the wound locally by group. Each group was administered once a day, with a dosed volume of 72 μL/wound each time, for 14 consecutive days. After the administration, the wound was covered with a sterile vaseline gauze (5 cm*5 cm), and bandaged with multi-layer sterile gauzes. After the wound surgery, the wound was photographed, and the wound area was recorded as the baseline value (the wound was recorded as Day0). During the administration period, the areas of the wounds were photographed and measured 3 times a week, and the healing was observed.

Substance | Wound healing rate (Day 0 (baseline)) | Wound healing rate (Day 3) | Wound healing rate (Day 5) | Wound healing rate (Day 7) | Wound healing rate (Day 10)
Glu-Pro-Val-Pro-Leu (EPVPL; printed: Glu-Pro-Val-Pro-Leu) [Comparative polypeptide 1] | 0.00 ± 0.00% | 21.13 ± 17.43% | 40.18 ± 17.43% | 68.84 ± 7.64% | 88.90 ± 8.40%
PAAEPVPLVKQE [Comparative polypeptide 2] | 0.00 ± 0.00% | 17.21 ± 22.78% | 50.08 ± 16.55% | 65.26 ± 14.46% | 90.34 ± 3.04%
